Where two headings read alike, the source gives them in different places.
How the values were obtained:
[1] = tested on: empty vector-transformed leaf discs; assay: PSII yield inhibition (chlorophyll fluorescence, imaging PAM) in empty vector-transformed tobacco leaf discs; assay type: cell-based; details: Nicotiana benthamiana, read-out: IC50 of PSII yield inhibition
[2] = tested on: mutated PPO sequences (e.g. SEQ ID NOs: 1, 30, 31, 11, 37, and 117) as wildtype or with respective mutations, expressed in leaf discs; assay: Herbicide tolerance of transiently transformed tobacco leaf discs expressing wildtype or mutated PPO: tolerance factors from IC50 of PSII yield inhibition versus empty vector; assay type: cell-based, Nicotiana benthamiana; details: 48 h herbicide treatment

SMILES: C#CCN1C(=O)C(F)(F)Oc2cc(F)c(-n3c(=O)n(C)c(=S)n(C)c3=O)cc21 [1,5-dimethyl-6-thioxo-3-(2,2,7-trifluoro-3-oxo-4-(prop-2-ynyl)-3,4-dihydro-2H-benzo[b][1,4]oxazin-6-yl)-1,3,5-triazinane-2,4-dione]
- IC50 ([1]; empty vector-transformed leaf discs, treated for 48 h): 11 nM
- Tolerance factor (IC50 of PSII yield inhibition, transformed versus empty vector-transformed leaf discs) ([2]; Bn_PPO2_A_L371E_F394M, Brassica napus, SEQ ID 117): 10
- Tolerance factor (IC50 of PSII yield inhibition, transformed versus empty vector-transformed leaf discs) ([2]; Bn_PPO2_A_L371E_F394V, Brassica napus, SEQ ID 117): 13
- Tolerance factor (IC50 of PSII yield inhibition, transformed versus empty vector-transformed leaf discs) ([2]; Bn_PPO2_A_L371Q_F394M, Brassica napus, SEQ ID 117): 10
- Tolerance factor (IC50 of PSII yield inhibition, transformed versus empty vector-transformed leaf discs) ([2]; Bn_PPO2_A_L371Q_F394V, Brassica napus, SEQ ID 117): 14
- Tolerance factor (IC50 of PSII yield inhibition, transformed versus empty vector-transformed leaf discs) ([2]; Bn_PPO2_A_R99A_F394V, Brassica napus, SEQ ID 117): 1
- Tolerance factor (IC50 of PSII yield inhibition, transformed versus empty vector-transformed leaf discs) ([2]; Bn_PPO2_A_wt, Brassica napus, SEQ ID 117): 1
- Tolerance factor (IC50 of PSII yield inhibition, transformed versus empty vector-transformed leaf discs) ([2]; Gm_PPO2_L367E_F390M, Glycine max, SEQ ID 11): 50
- Tolerance factor (IC50 of PSII yield inhibition, transformed versus empty vector-transformed leaf discs) ([2]; Gm_PPO2_L367E_F390V, Glycine max, SEQ ID 11): 15
- Tolerance factor (IC50 of PSII yield inhibition, transformed versus empty vector-transformed leaf discs) ([2]; Gm_PPO2_L367Q_F390M, Glycine max, SEQ ID 11): 14
- Tolerance factor (IC50 of PSII yield inhibition, transformed versus empty vector-transformed leaf discs) ([2]; Gm_PPO2_L367Q_F390V, Glycine max, SEQ ID 11): 26
- Tolerance factor (IC50 of PSII yield inhibition, transformed versus empty vector-transformed leaf discs) ([2]; Gm_PPO2_R98A_F390V, Glycine max, SEQ ID 11): 14
- Tolerance factor (IC50 of PSII yield inhibition, transformed versus empty vector-transformed leaf discs) ([2]; Gm_PPO2_wt, Glycine max, SEQ ID 11): 1
- Tolerance factor (IC50 of PSII yield inhibition, transformed versus empty vector-transformed leaf discs) ([2]; Os_PPO2_L374E_F397M, Oryza sativa, SEQ ID 37): 2454
- Tolerance factor (IC50 of PSII yield inhibition, transformed versus empty vector-transformed leaf discs) ([2]; Os_PPO2_L374E_F397V, Oryza sativa, SEQ ID 37): 43
- Tolerance factor (IC50 of PSII yield inhibition, transformed versus empty vector-transformed leaf discs) ([2]; Os_PPO2_L374Q_F397M, Oryza sativa, SEQ ID 37): 14
- Tolerance factor (IC50 of PSII yield inhibition, transformed versus empty vector-transformed leaf discs) ([2]; Zm_PPO2_L410E_F433M, Zea mays, SEQ ID 30, 31): 8766
- Tolerance factor (IC50 of PSII yield inhibition, transformed versus empty vector-transformed leaf discs) ([2]; Zm_PPO2_L410Q_F433M, Zea mays, SEQ ID 30, 31): 385
- Tolerance factor (IC50 of PSII yield inhibition, transformed versus empty vector-transformed leaf discs) ([2]; Zm_PPO2_L410Q_F433V, Zea mays, SEQ ID 30, 31): 15
- Tolerance factor (IC50 of PSII yield inhibition, transformed versus empty vector-transformed leaf discs) ([2]; Zm_PPO2_R130A_F433V, Zea mays, SEQ ID 30, 31): 8766

SMILES: CC(C)N(C)S(=O)(=O)NC(=O)c1cc(-n2c(=O)cc(C(F)(F)F)n(C)c2=O)c(F)cc1Cl [Saflufenacil, saflufenacil]
- IC50 ([1]; 48 h): 110 nM
